# How the values were obtained:
# [1] = cited from earlier work
# [2] = cited from earlier work; remark: listed apart in the source
# [3] = PAMPA permeability measurement (Example 5); assay type: in vitro ADME; details: redispersed in distilled water; receiver phosphate buffered saline with 1% sodium lauryl sulphate; UV at 248 nm
# Protocol: Reference Ezetimibe and solid nanostructured Ezetimibe was redispersed in distilled water and permeability was measured across and artificial membrane composed of dodecane with 20% soy lecithin. The sample containing the reference compound was a suspension of crystals visible by the naked eye, while the nanostructured sample was an opalescent colloid solution. The receiver compartment was phosphate buffered saline with 1% sodium lauryl sulphate.
# [4] = Solubility by UV-VIS measurement (Example 1); assay type: physicochemical; details: room temperature, UV-VIS at 248 nm, filtered by 100 nm syringe filter
# Protocol: The solubility of nanostructured Ezetimibe compared to the reference form of the active compound was determined in distilled water and 0.05% SDS solution by UV-VIS measurements (Thermo Genesys 10S spectrophotometer) at 248 nm wavelength and room temperature. The redispersed sample was filtered by 100 nm disposable syringe filter.
# human plasma proteins = details: cited from earlier work
PAMPA permeability [3],solubility in 0.05% SDS solution ([4]; 0.05% SDS solution),solubility in distilled water ([4]; distilled water),SMILES,stability ([1]; ambient temperature),"solubility in ethanol, methanol and acetone (descriptive) ([1]; ethanol, methanol, acetone)",solubility in water (descriptive) ([1]; water),deviation from dose proportionality ([2]; between 5 and 20 mg),"increase of Cmax with food ([2]; consumption of high-fat meals, ZETIA 10-mg tablets)","effect of concomitant food on extent of absorption ([2]; high-fat or non-fat meals, ZETIA 10-mg tablets)",bioavailability (estimated) ([2]; oral),"mean peak plasma concentration (Cmax) ([2]; in vivo, po, 10 mg)","tmax ([2]; in vivo, po, 10 mg)",bound to human plasma proteins (human plasma proteins)
under the detection limit,under the detection limit,under the detection limit,"O=C1[C@H](CC[C@H](O)c2ccc(F)cc2)[C@@H](c2ccc(O)cc2)N1c1ccc(F)cc1 [Ezetimibe, 1-(4-fluorophenyl)-3(R)-[3-(4-fluorophenyl)-3(S)-hydroxypropyl]-4(S)-(4-hydroxyphenyl)-2-azetidinone]",stable at ambient temperature,freely to very soluble,practically insoluble,no substantial deviation from dose proportionality,38%,no effect,35-65%,,,
,,,O=C(O)[C@H]1O[C@@H](Oc2ccc([C@@H]3[C@@H](CC[C@H](O)c4ccc(F)cc4)C(=O)N3c3ccc(F)cc3)cc2)[C@H](O)[C@@H](O)[C@@H]1O [Ezetimibe-glucuronide],,,,,,,,45 to 71 ng/mL,1 to 2 h,> 90%

# Source: patent US20130210794A1, “NANOSTRUCTURED EZETIMIBE COMPOSITIONS, PROCESS FOR THE PREPARATION THEREOF AND PHARMACEUTICAL COMPOSITIONS CONTAINING THEM” (priority 2010, published 2013)
